According to patent US9095541B2, “Brain tumor targeting peptides and methods” (Arch Cancer Therapeutics, Inc., priority 2009, dated 2015):
“Also recorded” adds a separate entry of the source.

Columns and labels:
[1] = test system: U87R cells; test: Subtractive/selective biopanning of Ph.D.-12 phage display library against U87R cells, sequencing of subclones; parameters: species or system human; details: given as n/100
Procedure: The present inventors have earlier described an in vivo selection for a population of human glioma cells that were highly invasive (U87R). In order to isolate peptides that could bind specifically to these highly invasive glioma cells, a biopanning experiment using a combinatorial phage display library was employed. Initially subtractive biopanning was performed with the U87 cells that were non-invasive (U87T) followed by selective biopanning with the U87R cells to isolate a library of phage (FIG. 1A) that were confirmed to preferentially interact with U87R cells by whole-cell ELISA (FIG. 1B).
Biopanning was performed as described in [61]. Subtraction cells (e.g. U87T) were released from tissue culture plastic with Puck's EDTA, and after washing with PBS, 1×10^7 cells were resuspended in 1% BSA in PBS with 1.5×10^11 pfu of Ph.D.-12 M13 Phage Library (New England Biolabs). The cells and phage were incubated in an eppendorf tube for 1 hour at room temperature with gentle shaking, before pelleting the cells and retaining the supernatant, which was transferred to a fresh tube with another aliquot of subtraction cells. The incubation and transfer of supernatant was performed three times, with the supernatant being transferred to an empty tube on the last round. Selection cells were released from tissue culture plastic with Puck's EDTA (e.g. U87R cells) and washed in PBS. 5×10^6 cells were resuspended in the 3× subtracted supernatant and incubated for 4 hours at 4° C. with slow shaking. The cell pellet was washed 5× in cold 1% BSA/0.1% Tween 20 in PBS five times, changing the tube after each wash. Bound phage were eluted by rocking the cells gently for 10 minutes at 4° C. in 1 mL of 0.2M Glycine-HCl pH 2.2 with 1 mg/mL BSA, and the supernatant was immediately neutralized with 150 μL of 1M Tris-HCl pH 9.1. The final library was amplified as per manufacturer's protocol.

[2] = test system: BTIC lines (neurospheres); test: Staining with biotin-labeled synthetic peptide, confocal, BTIC neurospheres; type: binding, human; details: neurospheres stained in suspension
Procedure: (§1) Binding specificity of the 7A peptide was assessed with non-target (U87MG; NSC) and target (BTIC) cells using a biotinylated 7A peptide (red) followed by confocal imaging.
(§2) To confirm the preferential binding of 7A to the BTICs rather than the cells used for subtraction, neurospheres and U87MG cells were stained in suspension with biotin-labeled synthetic peptide. […] Examination of the interaction of all selected peptides across a panel of BTIC lines underscored the heterogeneity within each cell population, and established a platform for correlating the ability to bind particular peptide sequences with either cell behavior or patient outcome.
(§3) Adherent cells: 13 mm coverslips were coated with neutralized 3 mg/mL Collagen I (PureCol), allowed to dry, then plated with test cells at 1×10^4/mL, 0.5 mL volume and allowed to equilibrate 20 minutes under normal culture conditions. Coverslips were fixed for 10 minutes in 3% formaldehyde in PBS, washed, then incubated in biotinylated peptide (3 mM stock) or primary antibody at a 1:100 dilution in 2% BSA/0.02% Tween 20 in PBS for 1 hour at room temperature. After washing in PBS, secondary antibody or streptavidin-Alexa 568 was applied at a dilution of 1:250 for 1 hour before coverslips were washed and mounted with DAKO mounting media with antifade. […]

[3] = test system: U87MG cells; test: Staining with biotin-labeled synthetic peptide, confocal, U87MG; type: binding, human
Procedure: as §1, §2, §3

[4] = test system: U87R (HIGC) cells; test: Peptide binding to U87R cells; parameters: species or system human
[5] = test system: U87T (main tumor) cells; test: Peptide binding to U87T cells; parameters: species or system human
[6] = test system: implanted GBM tumor from the U87MG cell line; test: In vivo targeting of fluorescent peptide to implanted U87MG tumor, fluorescence microscopy of brain sections; parameters: species or system mice
Procedure: (§4) In the studies shown in FIGS. 13A and 13B, brain tumors were implanted in mice with a patient-derived BTIC cell line BT025 identified as above by its binding to the 7A peptide. After tumor growth from the implanted cells, the tumors were removed, sectioned and stained for microscopic visualization. In the studies shown in FIGS. 14-19, a fluorescent peptide was administered intravenously, either by intracorotid injection or via tail vein into mice having an implanted GBM tumor from the BT025 cell line (FIGS. 14-17) or the U87MG cell line (FIGS. 18 and 19), and after localization of the peptide, the animal were sacrificed and their brain tumors removed for sectioning and visualization by fluorescence microscopy.
FIGS. 18A and 18B-18D show similar views, where the animal was injected with a fluorescently labeled modified H10 peptide (SEQ ID NO: 17, preferential for HIGC binding), in animals carrying a tumor initiated with the U87MG human glioblastoma cell line. For these studies, the tumors were not grown as large, and a far-red fluorescent signal is not obvious from inspection without sectioning (FIG. 18A).
FIGS. 19A and 19B and 19D show similar views, where the animal was injected with a fluorescently labeled modified E10 peptide (SEQ ID NO: 13, which binds to both BTIC's and HIGC's), in animals carrying a tumor initiated with the U87MG human glioblastoma cell line. […]

[7] = test system: BTIC isolates (BTIC 12, 25, 42, 50); test: Biopanning of phage display library against a mixture of BTIC isolates, sequencing of subclones; details: BTIC-binding phage subclones; given as n/50 subclones screened
[8] = test system: normal stem cells (NSC); test: Staining with biotin-labeled synthetic peptide, confocal, normal stem cells; type: binding; details: not tumorigenic cells
Procedure: as §1, §2
Suspended neurospheres: 50 μL of densely suspended neurospheres were stained as described above, except in suspension in an eppendorf tube. The stained neurospheres were mounted in a drop of DAKO mounting media under a coverslip.

[9] = test system: BTIC 12 and BTIC 25 xenografts; test: In vivo phage homing, BTIC xenografts, anti-phage immunohistochemistry; parameters: species or system SCID mice; details: phage perfused 10 minutes
Procedure: (§5) Cells were injected into the right brain hemisphere of SCID mice and allowed to establish for three months. Mice were then perfused with 7A or A1 (random control) phage for 10 minutes. […] 7A homing was not observed in mice bearing tumors generated from the U251N cell line.
(§6) 3×10^4 U87T cells, 3×10^5 U87R cells or 5×10^4 BTICs were injected in a 3 μL volume into one brain hemisphere of a SCID mouse and allowed to grow for 4, 6 or 12 weeks respectively. The mice were anaesthetized, then treated with 150 μL of 20% (w/v) mannitol for 15 minutes before injecting 5×10^9 pfu into the brain via the carotid. After allowing the phage to circulate for 10 minutes, unbound phage were flushed out of the circulatory system with 15 mL of PBS injected into the left ventricle after the right atrium was clipped. The brains were harvested, immediately frozen on dry ice and embedded in OCT for sectioning.
(§7) Serial sections were fixed with cold acetone, and rehydrated through an ethanol gradient. Endogenous peroxidases in the sections were inactivated with 0.075% H2O2/methanol, and nonspecific binding was blocked with 10% normal goat serum in PBS. […] Avidin-biotin peroxidase complexes were then formed using the VECTASTAIN Elite ABC kit (Vector Laboratories) and detected by addition of […] […]

[10] = test system: U251N human glioblastoma line xenografts; test: In vivo phage homing, U251N xenografts; parameters: species or system SCID mice; details: phage perfused, anti-phage immunohistochemistry
Procedure: as §5, §6, §7

[11] = test system: implanted GBM tumor from the BT025 cell line; test: In vivo targeting of fluorescent peptide to implanted BT025 tumor, fluorescence microscopy of brain sections; parameters: species or system mice; details: for distribution of fluorescent peptide signal in brain sections: BT025 tumor; for localization of peptide conjugate in human GBM tissue in vivo (summary): intravenous administration, BT025 tumor (general statements also cover U87MG tumors)
Procedure: as §4
The peptide was administered to the mouse via intracarotid injection and allowed to circulate for approximately half an hour to allow clearance of background signal before the mouse was sacrificed and the brain removed for imaging using an Olympus OV100 whole mouse imaging system. By non-magnified inspection, the large outgrowth of the tumor is obvious.
FIGS. 14B and 14C are lower and higher magnification photomicrographs of a thin section taken from the brain in FIG. 14A after it was bisected close to the tumor implantation site and stained for human nuclear antigen (green) and total DNA (blue) to outline the positioning of the cells. The red peptide signal is visible on cells immediately adjacent to the main tumor mass as well as spread diffusely in the surrounding tissue.

[12] = test system: U87MG cells transfected with p75^NTR; test: Transwell migration assay, p75NTR-transfected U87MG; type: cell-based, human; details: in vitro invasion assay
Procedure: The membranes of 8 μm pore sized transwell inserts (Corning Costar) were coated with brain-like matrix (720 μL of 3 mg/mL collagen I (PureCol); 180 μL of 10×DMEM (Invitrogen); 9 uL of 1 mg/mL human plasma fibronectin (Sigma); 9 uL of 1 mg/mL chondroitin sulfate proteoglycans (Chemicon); 16 μL of 0.15 mg/mL laminin (Chemicon)) on both sides, allowed to dry, then plated with 5×10^4 cells in 100 μL media in the upper chamber and 500 μL media in the lower chamber. Inclusion of collagen was essential to see the inhibitory effect of H10 (FIG. S4). 3×10^10 pfu of test phage were added to the upper chambers containing the cells, which were incubated for 4 hours under normal culture conditions. At the end of the incubation, the media was aspirated and the cells were fixed and stained in 1% crystal violet in 95% ethanol for one minute. Transwells were rinsed in PBS, then cells on the upper membrane surfaces were removed with a cotton swab. Cells which had migrated to the undersurface of the membranes were counted by light microscopy, and the sum of cells in five microscopic fields was recorded for each membrane.

Substance: HWAPSMYDYVSW (synthetic HIGC targeting peptide) [M5]
- number cell-binding phages containing that sequence [1]: 7/100

Substance: RTVPDYTAHVRT (synthetic HIGC targeting peptide) [M43]
- number cell-binding phages containing that sequence [1]: 5/100

Substance: SVSVGMKPSPRP (synthetic HIGC targeting peptide) [A2]
- number cell-binding phages containing that sequence [1]: 21/100

Substance: EHMALTYPFRPP (synthetic HIGC targeting peptide) [C12]
- number cell-binding phages containing that sequence [1]: 13/100

Substance: SLHMRHKRKPRR (synthetic BTIC targeting peptide) [E10]
- binding of peptide to BTICs [2]: binds
- binding of peptide to U87MG cells [3]: binds
- binding to U87R (HIGC) cells [4]: bind
- binding to U87T (main tumor) cells [5]: bind
- distribution of fluorescent peptide signal in brain sections ([6]; intracarotid injection): binds to a portion of cells within the main tumor mass; also recorded: also binds to cells outside of the main tumor mass
- localization of peptide conjugate in human GBM tissue in vivo (summary) ([6]; intravenous administration): can localize in human GBM tissue in vivo
- number of phage subclones containing that sequence [7]: 4/50

Substance: PSPHRQRQHILR (synthetic BTIC targeting peptide) [7A]
- binding of peptide to BTICs [2]: high percentage of positive cells within the neurosphere
- binding of peptide to U87MG cells [3]: predominantly negative
- binding of peptide to normal stem cells [8]: predominantly negative
- in vivo phage staining of BTIC xenografts [9]: only a subset of cells within the main tumor masses of BTIC 12 and 25 showed positive staining
- in vivo phage staining of U251N xenografts [10]: no staining was detected
- distribution of fluorescent peptide signal in brain sections ([11]; intracarotid injection): binds primarily to cells that are diffusely spread outside the main tumor mass
- fluorescent signal in whole brain imaging of tumor ([11]; intracarotid injection, approximately half an hour circulation, Olympus OV100): appears strongly in part of the tumor, but clearly does not detect all tumor cells present
- localization of peptide conjugate in human GBM tissue in vivo (summary) [11]: can localize in human GBM tissue in vivo
- number of phage subclones containing that sequence [7]: 25/50

Substance: GISLSSYLQSTQ (synthetic HIGC targeting peptide) [M32]
- number cell-binding phages containing that sequence [1]: 20/100

Substance: SGHQLLLNKMPN (synthetic HIGC targeting peptide) [M19]
- number cell-binding phages containing that sequence [1]: 4/100

Substance: CIQLANPPRLXG [M23]
- number cell-binding phages containing that sequence [1]: 2/100

Substance: KTSMRPLILIHI (synthetic BTIC targeting peptide) [3B]
- distribution of fluorescent peptide signal in brain sections ([11]; intracarotid injection): binds to cells that are both within and outside the main tumor mass
- localization of peptide conjugate in human GBM tissue in vivo (summary) [11]: can localize in human GBM tissue in vivo
- number of phage subclones containing that sequence [7]: 2/50

Substance: HLFPQSNYGGHS (synthetic HIGC targeting peptide) [M24]
- number cell-binding phages containing that sequence [1]: 2/100

Substance: IRSIRMRRILIL (synthetic BTIC targeting peptide) [C1]
- number of phage subclones containing that sequence [7]: 2/50

Substance: QTIRIIIRRSRT (synthetic BTIC targeting peptide) [10C]
- number of phage subclones containing that sequence [7]: 6/50

Substance: GMSLSRQMLWSL (synthetic HIGC targeting peptide) [F2]
- number cell-binding phages containing that sequence [1]: 2/100

Substance: SSRSMQRTLIIS (synthetic BTIC targeting peptide) [3F]
- distribution of fluorescent peptide signal in brain sections ([11]; intracarotid injection): most of the red signal appears outside of the main tumor mass
- localization of peptide conjugate in human GBM tissue in vivo (summary) [11]: can localize in human GBM tissue in vivo
- number of phage subclones containing that sequence [7]: 2/50

Substance: methyl-β-cyclodextran
- cell migration of U87p75 glioma cells [12]: significantly inhibited cell migration
